{"source": "patent US20030078274A1", "about": "“Method of reducing neuronal injury or apoptosis” (priority 1999, published 2003)", "test_system": "neurons in rat cerebrocortical cultures (SDF-1-induced apoptosis)", "assay": "SDF-1-induced neuronal apoptosis in rat cerebrocortical cultures", "type": "cell-based, Sprague-Dawley rats", "conditions": "p38 MAPK inhibition by SB 203580, FIG. 4(B)", "procedure": "The model used in the assays described below, i.e., rat cerebrocortical cultures, was prepared from embryos of Sprague-Dawley rats at day 15 to 17 of gestation. See Lei et al., Neuron 8:1087-1099 (1992) and Lipton et al., Nature 364:626-632 (1993). Cultures were used for experiments after 17 to 24 days in culture. These cultures contain neurons, astrocytes, and macrophages/microglia, as determined with specific immunolabeling. Prior to some experiments, macrophages/microglia or neurons were depleted from the cultures by exposure to 7.5 mM L-leucine methyl ester or 2 mM N-methyl-D-aspartate (NMDA), respectively. See Lipton, NeuroReport 3:913-915 (1992). Absence of macrophages/microglia or neurons in these cultures was confirmed immunocytochemically, using antibodies to ED-1 and microtubule-associated protein-2 (MAP-2), respectively. In some experiments, the Griess reaction was used to measure nitrite levels in the culture medium as an index of nitric oxide (NO) release. See Chao et al., Glia 16:276-284 (1996). […]\nNeuronal apoptosis in the above-described assays was assessed using a variety of techniques, e.g., staining of permeabilized cells with propidium iodide to determine apoptotic morphology, and a neuron-specific antibody (against NeuN or MAP-2) to identify cell type. […]", "data": [{"smiles": "C[S+]([O-])c1ccc(-c2nc(-c3ccc(F)cc3)c(-c3ccncc3)[nH]2)cc1", "note": "(stereo not shown) [SB 203580, 4-(4-fluorophenyl)-2-(4-methylsulfinylphenyl)-5-(4-pyridyl)-1H-imidazole]", "values": [{"measurement": "effect on SDF-1 neurotoxicity (SDF-1β-induced neuronal apoptosis)", "result": "ameliorated"}]}]}
